From patent US7981893B2, “Heteroaryl compounds, compositions thereof, and methods of treatment therewith” (Signal Pharmaceuticals, LLC, priority 2006, dated 2011)

SMILES	melting point
O=c1[nH]c2ncc(-c3ccc(-c4cc[nH]n4)cc3)nc2n1CC1CCCCC1 [Compound 160, 6-(4-(1H-Pyrazol-3-yl)phenyl)-1-(cyclohexylmethyl)-1H-imidazo[4,5-b]pyrazin-2(3H)-one]	292 to 294 °C
COc1ccccc1-n1c(=O)[nH]c2ccc(-c3cccc(O)c3)nc21 [Compound 92, 5-(3-Hydroxyphenyl)-3-(2-methoxyphenyl)-1H-imidazo[4,5-b]pyridin-2(3H)-one]	240 to 242 °C
O=c1[nH]c2ncc(-c3cn[nH]c3)nc2n1CC1CCOCC1 [Compound 183, 6-(1H-Pyrazol-4-yl)-1-((tetrahydro-2H-pyran-4-yl)methyl)-1H-imidazo[4,5-b]pyrazin-2(3H)-one]	238 to 240 °C
Cc1nc(-c2ccc(-c3cnc4[nH]c(=O)n(CC5CCCCC5)c4n3)cc2)n[nH]1 [Compound 159, 1-(Cyclohexylmethyl)-6-(4-(5-methyl-1H-1,2,4-triazol-3-yl)phenyl)-1H-imidazo[4,5-b]pyrazin-2(3H)-one]	315 to 318 °C
Cc1n[nH]cc1-c1cnc2[nH]c(=O)n(CC3CCOCC3)c2n1 [Compound 182, 6-(3-Methyl-1H-pyrazol-4-yl)-1-((tetrahydro-2H-pyran-4-yl)methyl)-1H-imidazo[4,5-b]pyrazin-2(3H)-one]	222 to 224 °C
O=c1[nH]c2ncc(-c3ccc(-c4ncc[nH]4)cc3)nc2n1CC1CCCCC1 [Compound 156, 6-(4-(1H-Imidazol-2-yl)phenyl)-1-(cyclohexylmethyl)-1H-imidazo[4,5-b]pyrazin-2(3H)-one]	349 to 351 °C
O=C1Cc2ccc(-c3cnc4[nH]c(=O)n(CC5CCCCC5)c4n3)cc2N1 [Compound 140, 1-(Cyclohexylmethyl)-6-(2-oxoindolin-6-yl)-1H-imidazo[4,5-b]pyrazin-2(3H)-one]	334 to 336 °C
COc1ccc(-c2cnc3[nH]c(=O)n(CC4CCCCC4)c3n2)cn1 [Compound 131, 1-(Cyclohexylmethyl)-6-(6-methoxypyridin-3-yl)-1H-imidazo[4,5-b]pyrazin-2(3H)-one]	235 to 237 °C
O=c1[nH]c2ncc(-c3ccc(-n4ccnn4)cc3)nc2n1CC1CCCCC1 [Compound 157, 6-(4-(1H-1,2,3-Triazol-1-yl)phenyl)-1-(cyclohexylmethyl)-1H-imidazo[4,5-b]pyrazin-2(3H)-one]	276 to 278 °C
O=c1[nH]c2ncc(-c3ccc(O)cc3)nc2n1CC1CCNCC1 [Compound 133, 6-(4-Hydroxyphenyl)-1-(piperidin-4-ylmethyl)-1H-imidazo[4,5-b]pyrazin-2(3H)-one]	300 °C (dec.)
COCc1nc(-c2ccc(-c3cnc4[nH]c(=O)n(CC5CCOCC5)c4n3)cc2)n[nH]1 [Compound 180, 6-(4-(5-(Methoxymethyl)-1H-1,2,4-triazol-3-yl)phenyl)-1-((tetrahydro-2H-pyran-4-yl)methyl)-1H-imidazo[4,5-b]pyrazin-2(3H)-one]	273 to 276 °C
CC(C)(O)c1ccc(-c2cnc3[nH]c(=O)n(CC4CCCCC4)c3n2)cc1 [Compound 114, 1-(Cyclohexylmethyl)-6-(4-(2-hydroxypropan-2-yl)phenyl)-1H-imidazo[4,5-b]pyrazin-2(3H)-one]	226 to 228 °C
O=c1[nH]c2ncc(-c3ccc(O)cc3)nc2n1CCO [Compound 105, 1-(2-Hydroxyethyl)-6-(4-hydroxyphenyl)-1H-imidazo[4,5-b]pyrazin-2(3H)-one]	308 to 310 °C
COc1cccc(CN2CC(=O)Nc3ncc(-c4ccc(O)cc4)nc32)c1 [Compound 119, 6-(4-Hydroxyphenyl)-4-(3-methoxybenzyl)-3,4-dihydropyrazino[2,3-b]pyrazin-2(1H)-one]	282 to 283 °C
O=c1[nH]c2ncc(-c3cn[nH]c3)nc2n1CC1CCCCC1 [Compound 126, 1-(Cyclohexylmethyl)-6-(1H-pyrazol-4-yl)-1H-imidazo[4,5-b]pyrazin-2(3H)-one]	246 to 248 °C
O=c1[nH]c2ncc(-c3ccc4[nH]ccc4c3)nc2n1CC1CCCCC1 [Compound 103, 1-(Cyclohexylmethyl)-6-(1H-indol-5-yl)-1H-imidazo[4,5-b]pyrazin-2(3H)-one]	343 to 346 °C
O=c1[nH]c2ncc(-c3ccnc(O)c3)nc2n1CC1CCCCC1 [Compound 154, 1-(Cyclohexylmethyl)-6-(2-hydroxypyridin-4-yl)-1H-imidazo[4,5-b]pyrazin-2(3H)-one]	311 to 313 °C
O=c1[nH]c2ncc(-c3ccc(-c4n[nH]c(C(F)(F)F)n4)cc3)nc2n1CC1CCCCC1 [Compound 163, 1-(Cyclohexylmethyl)-6-(4-(5-(trifluoromethyl)-1H-1,2,4-triazol-3-yl)phenyl)-1H-imidazo[4,5-b]pyrazin-2(3H)-one]	303 to 305 °C
Cn1cc(-c2cnc3[nH]c(=O)n(CC4CCOCC4)c3n2)cn1 [Compound 170, 6-(1-Methyl-1H-pyrazol-4-yl)-1-((tetrahydro-2H-pyran-4-yl)methyl)-1H-imidazo[4,5-b]pyrazin-2(3H)-one]	224 to 226 °C
O=c1[nH]c2ncc(-c3ccc4[nH]cnc4c3)nc2n1CC1CCCCC1 [Compound 148, 6-(1H-Benzo[d]imidazol-5-yl)-1-(cyclohexylmethyl)-1H-imidazo[4,5-b]pyrazin-2(3H)-one]	217 to 220 °C
O=c1[nH]c2ncc(-c3cccc(-c4nc[nH]n4)c3)nc2n1CC1CCCCC1 [Compound 166, 6-(3-(1H-1,2,4-Triazol-3-yl)phenyl)-1-(cyclohexylmethyl)-1H-imidazo[4,5-b]pyrazin-2(3H)-one]	305 to 307 °C
O=c1[nH]c2ncc(-c3cccc(-c4cn[nH]n4)c3)nc2n1CC1CCCCC1 [Compound 150, 6-(3-(2H-1,2,3-Triazol-4-yl)phenyl)-1-(cyclohexylmethyl)-1H-imidazo[4,5-b]pyrazin-2(3H)-one]	299 to 301 °C
Cc1cc(O)ccc1-c1cnc2[nH]c(=O)n(CC3CCCCC3)c2n1 [Compound 115, 1-(Cyclohexylmethyl)-6-(4-hydroxy-2-methylphenyl)-1H-imidazo[4,5-b]pyrazin-2(3H)-one]	212 to 214 °C
O=C1NCc2cc(-c3cnc4[nH]c(=O)n(CC5CCCCC5)c4n3)ccc21 [Compound 127, 1-(Cyclohexylmethyl)-6-(1-oxoisoindolin-5-yl)-1H-imidazo[4,5-b]pyrazin-2(3H)-one]	337 to 339 °C
CN1CCC(Cn2c(=O)[nH]c3ncc(-c4ccc(O)cc4)nc32)CC1 [Compound 109, 6-(4-Hydroxyphenyl)-1-((1-methylpiperidin-4-yl)methyl)-1H-imidazo[4,5-b]pyrazin-2(3H)-one]	292 to 294 °C

The remaining lines, values ahead:

melting point	SMILES
338 to 340 °C	O=C1CCC(Cn2c(=O)[nH]c3ncc(-c4ccc(O)cc4)nc32)N1 (stereo not shown) [Compound 198, 6-(4-Hydroxyphenyl)-1-((5-oxopyrrolidin-2-yl)methyl)-1H-imidazo[4,5-b]pyrazin-2(3H)-one]
> 260 °C	O=c1[nH]c2ncc(-c3cncnc3)nc2n1CC1CCCCC1 [Compound 230, 1-(Cyclohexylmethyl)-6-(pyrimidin-5-yl)-1H-imidazo[4,5-b]pyrazin-2(3H)-one]
294 to 296 °C	O=c1[nH]c2ncc(-c3ccc(-n4cccn4)cc3)nc2n1CC1CCOCC1 [Compound 192, 6-(4-(1H-Pyrazol-1-yl)phenyl)-1-((tetrahydro-2H-pyran-4-yl)methyl)-1H-imidazo[4,5-b]pyrazin-2(3H)-one]
258 to 260 °C	Cc1cc(-c2nc[nH]n2)ccc1-c1cnc2[nH]c(=O)n(CCC3CCOCC3)c2n1 [Compound 239, 6-(2-methyl-4-(1H-1,2,4-triazol-3-yl)phenyl)-1-(2-(tetrahydro-2H-pyran-4-yl)ethyl)-1H-imidazo[4,5-b]pyrazin-2(3H)-one]
367 to 370 °C	O=c1[nH]c2ncc(-c3cnc4[nH]cnc4c3)nc2n1CC1CCOCC1 [Compound 190, 6-(3H-imidazo[4,5-b]pyridin-6-yl)-1-((tetrahydro-2H-pyran-4-yl)methyl)-1H-imidazo[4,5-b]pyrazin-2(3H)-one]
305 to 308 °C	CC(C)c1nc(-c2ccc(-c3cnc4[nH]c(=O)n(CC5CCOCC5)c4n3)cc2)n[nH]1 [Compound 186, 6-(4-(5-Isopropyl-1H-1,2,4-triazol-3-yl)phenyl)-1-((tetrahydro-2H-pyran-4-yl)methyl)-1H-imidazo[4,5-b]pyrazin-2(3H)-one]
258 to 260 °C	C[C@H](c1ccccc1)n1c(=O)[nH]c2ncc(-c3ccc(-c4nc[nH]n4)cc3)nc21 [Compound 249, (R)-6-(4-(1H-1,2,4-triazol-3-yl)phenyl)-1-(1-phenylethyl)-1H-imidazo[4,5-b]pyrazin-2(3H)-one]
220 to 222 °C	O=c1[nH]c2ncc(-c3ccc(F)nc3)nc2n1CC1CCOCC1 [Compound 231, 6-(6-Fluoropyridin-3-yl)-1-((tetrahydro-2H-pyran-4-yl)methyl)-1H-imidazo[4,5-b]pyrazin-2(3H)-one]
295 to 297 °C	O=c1[nH]c2ncc(-c3ccc(-c4nnc[nH]4)cc3)nc2n1CCN1CCOCC1 [Compound 193, 6-(4-(4H-1,2,4-Triazol-3-yl)phenyl)-1-(2-morpholinoethyl)-1H-imidazo[4,5-b]pyrazin-2(3H)-one]
> 250 °C	CC(C)(O)c1ccc(-c2cnc3[nH]c(=O)n(CC4CCCCC4)c3n2)cn1 [Compound 240, 1-(cyclohexylmethyl)-6-(6-(2-hydroxypropan-2-yl)pyridin-3-yl)-1H-imidazo[4,5-b]pyrazin-2(3H)-one]
353 to 356 °C	O=c1[nH]c2ncc(-c3ccc(-c4nc[nH]n4)nc3)nc2n1CC1CCOCC1 [Compound 202, 6-(6-(1H-1,2,4-Triazol-3-yl)pyridin-3-yl)-1-((tetrahydro-2H-pyran-4-yl)methyl)-1H-imidazo[4,5-b]pyrazin-2(3H)-one]
300 to 301 °C	O=C1CCCN1CCn1c(=O)[nH]c2ncc(-c3ccc(-c4nc[nH]n4)cc3)nc21 [Compound 203, 6-(4-(1H-1,2,4-Triazol-3-yl)phenyl)-1-(2-(2-oxopyrrolidin-1-yl)ethyl)-1H-imidazo[4,5-b]pyrazin-2(3H)-one]
